# According to patent US9410142B2, “Dendrimer-based excipients for the attenuation of protein aggregation” (Massachusetts Institute of Technology, priority 2010, dated 2016):
# What was measured:
# Concanavalin A (Con A) = Concanavalin A (Con A) (Canavalia ensiformis, UniProt P02866); assay: Con A aggregation / shelf-life at pH 6.5 and 37° C.; format: physicochemical; conditions: isotonic concentrations, 40 mM sodium phosphate pH 6.5, 37° C., time for 5% loss of protein vs no additive
# Protocol: This Shelf-Life Extension Factor was determined by comparing the length of time, t95, for a 5% loss of protein when in the presence of the compounds to the original length of time, t95,0 for a 5% loss. For comparison purposes, isotonic concentrations (as determined by VPO) of the compounds were used and Shelf-Life Extension Factor values for commonly used excipients at isotonic concentrations are shown as well. Shelf-life values of aCgn were determined at 52.5° C. and at 37° C. for Con A.
# [1] = biological target: T1, α-chymotrypsinogen A (aCgn) (Bos taurus, UniProt P00766); assay: DSC denaturation midpoint temperature (Tm) of aCgn; format: physicochemical, Bovine; conditions: for dTm/d[3] aCgn denaturation midpoint temperature increment: 1 mg/mL aCgn, 20 mM sodium citrate pH 5, maximum dendrimer 0.2 mol/L; for rate of increase of Tm of aCgn: concentrations less than 0.2 mol/L
# Protocol: The thermodynamic stability of aCgn in the presence of the arginine salts was determined by DSC (Microcal VP-Differential Scanning calorimeter located in the Biophysical Instrumentation Facility (BIF) at MIT). Each reading began with a minimum of three buffer-buffer up and down scans (in this case, the buffer also contains the cosolute of interest) to establish a reproducible thermal history followed by a single protein-buffer up scan. aCgn was analyzed at a concentration of 1 mg/mL in a 20 mM sodium citrate pH 5 buffer containing the cosolute of interest and a scan rate of 90° C./hour. The data was analyzed in the MicroCal Origin® plotting software. In the analysis, the last buffer-buffer reference scan was first subtracted from the data and then the data was normalized with respect to the protein concentration, cell volume, and scan rate. The baseline (which was progressed through the peak) was then subtracted from the plot and the denaturation midpoint temperature, Tm, was taken as the temperature at the peak maximum of the unfolding event. For each arginine salt, three concentrations (including zero concentration) were tested and Tm values with respect to cosolute concentration were fitted to a linear trend.
# The thermostability of aCgn at 1 mg/mL in the presence of the modified dendrimers was assessed by determining the denaturation midpoint temperature (Tm) from DSC scans, which is a qualitative indicator of how the conformational stability of the protein is perturbed. Ghosh K et al. (2009) Proc Natl Acad Sci USA 106:10649-10654.
# [2] = biological target: T1, α-chymotrypsinogen A (aCgn); assay: Preferential interaction with aCgn by vapor pressure osmometry (VPO); format: physicochemical, Bovine; conditions: for Γ23/[3] preferential interaction with aCgn: 50 mg/mL aCgn, 20 mM sodium citrate pH 5, maximum dendrimer 0.2 mol/L; for Γexp preferential interaction coefficient of aCgn: 0.17-[…] dendrimer salt, VPO
# Protocol: Osmolality measurements were carried out according to the previously described procedure. For improved accuracy, all samples were prepared gravimetrically using a Mettler Toledo balance with a precision of 0.1 mg. Partial molar volume values of the
# Stock solutions of both BSA and lysozyme and stock solutions of the cosolutes were each prepared in a 40 mM sodium phosphate buffer, pH 6.0 (aCgn measurements were conducted in 20 mM sodium citrate buffer, pH 3.5 or pH 5.0). Stock solutions of the cosolutes were used so that a series of samples could be easily produced with varying solute concentrations by dilution with water and buffer. The protein stock solutions were further purified by placing the solutions under dialysis for 48 hours at room temperature against two changes of buffer (1 L each). […] To determine the concentration, samples of each stock solution were diluted gravimetrically with water to a final optical density of about 1.0 and the concentration determined spectrophotometrically with a PerkinElmer Lambda 35 UV/Vis spectrometer. It should be noted that the protein stock solutions were stored at 4° C. and used within one week of their preparation.
# [formula] A Wescor Vapro® vapor pressure osmometer (model 5520) was used for all osmometry measurements. The instrument was calibrated using 0.1, 0.29, and 1 mol/kg osmolality standards provided by Wescor. Due to slight drifts in the calibration points, the instrument was recalibrated after every four measurements and the thermocouple was cleaned daily using concentrated ammonium hydroxide followed by a rinse with HPLC grade water. […] The data sets for each cosolute included at least 16 individually made solutions (both for the sets with and without the protein). Each sample contained approximately 80 μL of solution (40 μL of diluted cosolute stock solution and 40 μL of the protein stock solution). A minimum of three measurements on each solution were made. If the standard deviation for a particular solution was greater than 2 mmol/kg, more measurements were taken or another sample was prepared. For a given solute, data representing the dependence of osmolality on solute molality were fitted by a quadratic equation, with all fitting parameters floated. Data were weighted by the standard deviation of the individual osmolality measurements for the same solution using the nonlinear fitting program Igor Pro.
# To gain further insight into how the modified dendrimer salts inhibit protein-protein interactions, preferential interaction coefficient (Γ23) values at various concentrations were determined, both experimentally via vapor pressure osmometry (VPO) measurements and computationally via MD simulations. The experimental results for the interaction between modified generation 0 PAMAM dendrimers and aCgn are expressed in Table 2, which summarizes the polynomial fit and uncertainty of the experimental data. Theoretical preferential interaction coefficient values were computed from the MD simulation using the procedure outlined in our previous work. Baynes B M and Trout B L (2003) J Phys Chem B 107:14058-14067; Shukla D et al. (2009) J Phys Chem B 113:12546-12554.
# [3] = Partial molar volume from density measurements of dendrimer only solutions; format: physicochemical
Structure (SMILES),"Con A t95/t95, 0 (Shelf-Life Extension Factor) (Concanavalin A (Con A))",dTm/d[3] aCgn denaturation midpoint temperature increment [1] [K * L/mol],rate of increase of Tm of aCgn [1] [° C.*M^−1],Γ23/[3] preferential interaction with aCgn [2] [mol/mol],Γexp preferential interaction coefficient of aCgn [2],V0 partial molar volume at infinite dilution [3] [L/mol],"Con A t95/t95, 0 (Shelf-Life Extension Factor) (Concanavalin A (Con A); listed as Dend. 0 Gdm(H2PO4))","Con A t95/t95, 0 (Shelf-Life Extension Factor) (Concanavalin A (Con A); listed as phosphate form)"
N=C(N)NCCNC(=O)CCN(CCC(=O)NCCNC(=N)N)CCN(CCC(=O)NCCNC(=N)N)CCC(=O)NCCNC(=N)N.O=S(=O)(O)O.O=S(=O)(O)O.O=S(=O)(O)O [Gdm(SO4)1/2],5.9,15.2,15.2,−17.0 ± 4.4,−3.1,0.5665,,
N=C(N)NCCNC(=O)CCN(CCC(=O)NCCNC(=N)N)CCN(CCC(=O)NCCNC(=N)N)CCC(=O)NCCNC(=N)N.O=P(O)(O)O.O=P(O)(O)O.O=P(O)(O)O.O=P(O)(O)O.O=P(O)(O)O.O=P(O)(O)O [Gdm(H2PO4)],,37.4,37.4,−15.8 ± 5.0,−2.9,0.7254,1.6,minimal improvement
